Laboratory results: ChEMBL document CHEMBL6114992, “Design, synthesis, biological evaluation, and mechanism of action of new pyrazines as anticancer agents in vitro and in vivo” (Bioorg Med Chem, 2025)
Calls of active or inactive are those of the source. The rule behind the calls is not given here.

Experiments:
[1] = target: Signal transducer and activator of transcription 3 (Homo sapiens) (UniProt P40763); assay: Inhibition of STAT3 phosphorylation in human SK-OV-3 cells at 0.5 to 2.5 uM incubated for 48 hrs by Western blot analysis; type: cell-based; conditions: dose 0.5-2.5 µM
U-937 [2] = assay: Induction of apoptosis in human U-937 cells assessed as change in mitochondrial membrane potential at 1 uM incubated for 48 hrs by JC-1 staining based flow cytometry (reference value: 2.20 %); type: functional
U-937 [3] = assay: Induction of apoptosis in human U-937 cells assessed as change in mitochondrial membrane potential at 2.5 uM incubated for 48 hrs by JC-1 staining based flow cytometry (reference value: 2.20 %); type: functional
SK-OV-3 = assay: Antitumor activity against human SK-OV-3 cells xenografted in nude mouse assessed as reduction cell proliferation at 30 to 60 mg/kg, ip qd treated for 14 days by Ki67 staining based IHC analysis; type: functional, organism-based; conditions: dose 30-60 mg/kg, time 14.0 day
[4] = Toxicity in nude mouse xenografted with human SK-OV-3 cells assessed as histopathological change in kidney at 30 to 60 mg/kg, ip qd treated for 14 days by H and E staining based analysis; type: organism-based; conditions: in vivo, 336 h, dose 30-60 mg/kg, time 14 day
[5] = Toxicity in nude mouse xenografted with human SK-OV-3 cells assessed as body weight change at 30 to 60 mg/kg, ip qd treated for 14 days; type: organism-based; conditions: in vivo, 336 h, dose 30-60 mg/kg, time 14 day
U-937 [6] = assay: Induction of apoptosis in human U-937 cells assessed as late apoptotic cells at 0.5 uM incubated for 48 hrs by Annexin V-FITC/PI staining based flow cytometry (reference value: 1.96 %); type: functional
U-937 [7] = assay: Downregulation of Bcl-2 expression in human U-937 cells incubated for 48 hrs by Western blot analysis; type: functional, cell-based

Signal transducer and activator of transcription 3 (Homo sapiens), sequence (P40763 whole entry): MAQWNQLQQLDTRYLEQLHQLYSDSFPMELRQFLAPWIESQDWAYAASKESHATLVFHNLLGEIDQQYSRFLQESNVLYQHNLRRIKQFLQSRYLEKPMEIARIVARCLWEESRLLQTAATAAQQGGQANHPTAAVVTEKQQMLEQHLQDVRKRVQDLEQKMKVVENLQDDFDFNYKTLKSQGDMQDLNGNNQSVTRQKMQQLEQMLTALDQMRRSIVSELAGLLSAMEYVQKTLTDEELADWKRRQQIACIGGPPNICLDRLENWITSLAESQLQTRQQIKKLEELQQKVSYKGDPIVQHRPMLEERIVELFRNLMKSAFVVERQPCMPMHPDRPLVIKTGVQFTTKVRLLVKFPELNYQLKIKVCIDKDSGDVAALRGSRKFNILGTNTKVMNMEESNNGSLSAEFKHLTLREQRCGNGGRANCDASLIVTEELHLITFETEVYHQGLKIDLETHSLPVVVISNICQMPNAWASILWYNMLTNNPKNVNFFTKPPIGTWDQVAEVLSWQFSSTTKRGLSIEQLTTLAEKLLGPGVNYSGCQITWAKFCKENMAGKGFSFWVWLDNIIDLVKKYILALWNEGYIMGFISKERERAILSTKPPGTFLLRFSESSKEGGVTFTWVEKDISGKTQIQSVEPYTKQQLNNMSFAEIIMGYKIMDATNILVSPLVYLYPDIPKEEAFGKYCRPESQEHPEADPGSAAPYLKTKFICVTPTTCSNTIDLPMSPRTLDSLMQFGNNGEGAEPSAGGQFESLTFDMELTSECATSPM

Which inhibition [1] does the source give for `CCc1nccnc1C(=O)/C=C/c1ccccn1` here?
The inhibition was “Active”.

For `Cc1nccnc1C(=O)/C=C/c1cccc(C#N)c1`, which Activity (U-937 [2]) is on record?
The Activity was 3.68%.

What about the Activity (U-937 [3]) of the same molecule?
Its Activity is 4.53%.

And the Activity (SK-OV-3)?
Its Activity is “Active”.

And the Activity [4]?
Its Activity is “Non-toxic”.

What about the Activity [5] of the same molecule?
Its Activity is “Non-toxic”.

And the Activity (U-937 [6])?
The Activity was 6.79%.

What about the Activity (U-937 [7]) of the same molecule?
The Activity was “Dose-dependent-effect”.
